Assay results published in PubChem BioAssay AID1963449 (Molecular Pharmacology Branch, DTP, NCI, 2024).
pIC50: −log10 of the molar value.

Tested on: 596521-263-R-J1-PDC complex spheroid growth
Assay: Anticancer human tumor 596521-263-R-J1-PDC patient-derived soft tissue sarcoma cell line growth inhibition [Asc]
Settings: for pIC50: curve of first compound; for viability, T/C: stronger effect = lower value
Procedure, shortened: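 Spheroid model: tumor line + HUVEC + hMSC. Single agents and combinations; top conc. at/near clinical Cmax (10 microM if undetermined), half-log dilutions. DMSO stocks at 800-fold test concentration.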
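Note: spheroids exposed to compounds for 7 days.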

How did the pIC50 (second compound 0.00949 µM) turn out when CNC(C)C(=O)NC1CN(S(=O)(=O)c2cccc(S(=O)(=O)N3CCC4CCC(C(=O)NC(c5ccccc5)c5ccccc5)N4C(=O)C(NC(=O)C(C)NC)C3)c2)CCC2CCC(C(=O)NC(c3ccccc3)c3ccccc3)N2C1=O (centres undefined) + CCN1C(C(=O)NC23CCC(C(=O)O)(CC2)CC3)C(c2cccc(Cl)c2F)C2(C(=O)Nc3cc(Cl)ccc32)C12CCCCC2 was run?
Its pIC50 is < 6.00.

And the pIC50 (second compound 0.03 µM)?
The pIC50 was < 6.00.

And the pIC50 (second compound 0.0949 µM)?
Its pIC50 is < 6.00.

And the pIC50 (second compound 0.3 µM)?
The pIC50 was < 6.00.

What about the pIC50 (second compound 0.949 µM) of the same compound?
Its pIC50 is < 6.00.

What about the pIC50 (second compound 3 µM) of the same compound?
Its pIC50 is < 6.00.

What about the viability, T/C (second compound 0.00949 µM, first compound 0.00316 µM) of the same compound?
Its viability, T/C is 92.4%.

And the viability, T/C (second compound 0.00949 µM, first compound 0.01 µM)?
The viability, T/C was 87.3%.

And the viability, T/C (second compound 0.00949 µM, first compound 0.0316 µM)?
The viability, T/C was 111%.

And the viability, T/C (second compound 0.00949 µM, first compound 0.1 µM)?
Its viability, T/C is 96%.

And the viability, T/C (second compound 0.00949 µM, first compound 0.316 µM)?
Its viability, T/C is 87%.

And the viability, T/C (second compound 0.00949 µM, first compound 1 µM)?
Its viability, T/C is 86.3%.

What about the viability, T/C (second compound 0.03 µM, first compound 0.00316 µM) of the same compound?
The viability, T/C was 96.4%.

What about the viability, T/C (second compound 0.03 µM, first compound 0.01 µM) of the same compound?
Its viability, T/C is 86.5%.

What about the viability, T/C (second compound 0.03 µM, first compound 0.0316 µM) of the same compound?
The viability, T/C was 88.5%.

What about the viability, T/C (second compound 0.03 µM, first compound 0.1 µM) of the same compound?
The viability, T/C was 87.7%.

What about the viability, T/C (second compound 0.03 µM, first compound 0.316 µM) of the same compound?
Its viability, T/C is 87.5%.

What about the viability, T/C (second compound 0.03 µM, first compound 1 µM) of the same compound?
The viability, T/C was 73.1%.

And the viability, T/C (second compound 0.0949 µM, first compound 0.00316 µM)?
The viability, T/C was 102%.

And the viability, T/C (second compound 0.0949 µM, first compound 0.01 µM)?
Its viability, T/C is 105%.

What about the viability, T/C (second compound 0.0949 µM, first compound 0.0316 µM) of the same compound?
Its viability, T/C is 85.2%.

And the viability, T/C (second compound 0.0949 µM, first compound 0.1 µM)?
The viability, T/C was 94.7%.

What about the viability, T/C (second compound 0.0949 µM, first compound 0.316 µM) of the same compound?
Its viability, T/C is 91.4%.

And the viability, T/C (second compound 0.0949 µM, first compound 1 µM)?
Its viability, T/C is 89.8%.

And the viability, T/C (second compound 0.3 µM, first compound 0.00316 µM)?
Its viability, T/C is 104%.

And the viability, T/C (second compound 0.3 µM, first compound 0.01 µM)?
The viability, T/C was 104%.

And the viability, T/C (second compound 0.3 µM, first compound 0.0316 µM)?
Its viability, T/C is 98.4%.

What about the viability, T/C (second compound 0.3 µM, first compound 0.1 µM) of the same compound?
Its viability, T/C is 91.5%.

What about the viability, T/C (second compound 0.3 µM, first compound 0.316 µM) of the same compound?
The viability, T/C was 94.2%.

What about the viability, T/C (second compound 0.3 µM, first compound 1 µM) of the same compound?
Its viability, T/C is 70.3%.

And the viability, T/C (second compound 0.949 µM, first compound 0.00316 µM)?
Its viability, T/C is 99%.

And the viability, T/C (second compound 0.949 µM, first compound 0.01 µM)?
Its viability, T/C is 90.2%.

What about the viability, T/C (second compound 0.949 µM, first compound 0.0316 µM) of the same compound?
The viability, T/C was 98.8%.

And the viability, T/C (second compound 0.949 µM, first compound 0.1 µM)?
The viability, T/C was 80.3%.

What about the viability, T/C (second compound 0.949 µM, first compound 0.316 µM) of the same compound?
The viability, T/C was 78.8%.

What about the viability, T/C (second compound 0.949 µM, first compound 1 µM) of the same compound?
Its viability, T/C is 84.4%.

And the viability, T/C (second compound 3 µM, first compound 0.00316 µM)?
Its viability, T/C is 78.2%.

What about the viability, T/C (second compound 3 µM, first compound 0.01 µM) of the same compound?
Its viability, T/C is 87.8%.

And the viability, T/C (second compound 3 µM, first compound 0.0316 µM)?
Its viability, T/C is 82.8%.

What about the viability, T/C (second compound 3 µM, first compound 0.1 µM) of the same compound?
Its viability, T/C is 73.5%.

And the viability, T/C (second compound 3 µM, first compound 0.316 µM)?
Its viability, T/C is 69.3%.

And the viability, T/C (second compound 3 µM, first compound 1 µM)?
Its viability, T/C is 65.4%.

Which results are given for NC(=O)C(=Cn1cnc(-c2cc(C(F)(F)F)cc(C(F)(F)F)c2)n1)c1cncnc1 + CNC(C)C(=O)NC1CN(S(=O)(=O)c2cccc(S(=O)(=O)N3CCC4CCC(C(=O)NC(c5ccccc5)c5ccccc5)N4C(=O)C(NC(=O)C(C)NC)C3)c2)CCC2CCC(C(=O)NC(c3ccccc3)c3ccccc3)N2C1=O?
pIC50 (second compound 0.00316 µM): 7.69; pIC50 (second compound 0.01 µM): 7.59; pIC50 (second compound 0.0316 µM): 7.67; pIC50 (second compound 0.1 µM): 7.74; pIC50 (second compound 0.316 µM): 7.75; pIC50 (second compound 1 µM): 7.90; viability, T/C (second compound 0.00316 µM, first compound 0.000949 µM): 99.8%; viability, T/C (second compound 0.00316 µM, first compound 0.003 µM): 94.3%; viability, T/C (second compound 0.00316 µM, first compound 0.00949 µM): 67.1%; viability, T/C (second compound 0.00316 µM, first compound 0.03 µM): 42.8%; viability, T/C (second compound 0.00316 µM, first compound 0.0949 µM): 16.1%; viability, T/C (second compound 0.00316 µM, first compound 0.3 µM): 10.4%; viability, T/C (second compound 0.01 µM, first compound 0.000949 µM): 101%; viability, T/C (second compound 0.01 µM, first compound 0.003 µM): 101%; viability, T/C (second compound 0.01 µM, first compound 0.00949 µM): 84.3%; viability, T/C (second compound 0.01 µM, first compound 0.03 µM): 44.9%; viability, T/C (second compound 0.01 µM, first compound 0.0949 µM): 14.8%; viability, T/C (second compound 0.01 µM, first compound 0.3 µM): 9.7%; viability, T/C (second compound 0.0316 µM, first compound 0.000949 µM): 102%; viability, T/C (second compound 0.0316 µM, first compound 0.003 µM): 93.7%; viability, T/C (second compound 0.0316 µM, first compound 0.00949 µM): 75.8%; viability, T/C (second compound 0.0316 µM, first compound 0.03 µM): 38.6%; viability, T/C (second compound 0.0316 µM, first compound 0.0949 µM): 18.7%; viability, T/C (second compound 0.0316 µM, first compound 0.3 µM): 10.5%; viability, T/C (second compound 0.1 µM, first compound 0.000949 µM): 93.6%; viability, T/C (second compound 0.1 µM, first compound 0.003 µM): 89.4%; viability, T/C (second compound 0.1 µM, first compound 0.00949 µM): 67.5%; viability, T/C (second compound 0.1 µM, first compound 0.03 µM): 35.6%; viability, T/C (second compound 0.1 µM, first compound 0.0949 µM): 14.6%; viability, T/C (second compound 0.1 µM, first compound 0.3 µM): 5.92%; viability, T/C (second compound 0.316 µM, first compound 0.000949 µM): 95.3%; viability, T/C (second compound 0.316 µM, first compound 0.003 µM): 76.8%; viability, T/C (second compound 0.316 µM, first compound 0.00949 µM): 71.3%; viability, T/C (second compound 0.316 µM, first compound 0.03 µM): 33.8%; viability, T/C (second compound 0.316 µM, first compound 0.0949 µM): 14.4%; viability, T/C (second compound 0.316 µM, first compound 0.3 µM): 6.61%; viability, T/C (second compound 1 µM, first compound 0.000949 µM): 85.8%; viability, T/C (second compound 1 µM, first compound 0.003 µM): 81.8%; viability, T/C (second compound 1 µM, first compound 0.00949 µM): 56.1%; viability, T/C (second compound 1 µM, first compound 0.03 µM): 27.3%; viability, T/C (second compound 1 µM, first compound 0.0949 µM): 11.2%; viability, T/C (second compound 1 µM, first compound 0.3 µM): 7.61%
